We go through seven compounds from US20220296627A1, “Cytidine Derivatives and Methods of Forming Cytidine Derivatives” (Aenorasis Commercial Company of Pharmaceutical and Medical …, priority 2019, published 2022).

For series [1], the system named is A549/WT wild type human lung adenocarcinoma cell line. The series is described as follows: Cell growth assay (SRB) in A549/WT. Type of series: cell-based. Particulars: for Ratio of IC50 in the presence of dipyridamole / IC50 in the absence of dipyridamole / Ratio of IC50 in the presence of, compared to in the absence of, dipyridamole: A549/WT; for Ratio of IC50 in the presence of dipyridamole / IC50 in the absence of dipyridamole: 4-N-acyl and 4-N-phosphoryl derivatives (Table 5); for IC50: Homo sapiens, A549, A549/WT; for Ratio of IC50 in the presence of, compared to in the absence of, dipyridamole: acetylated 4-N-acyl derivatives (Table 7). The procedure:
(§1) Biological activities of the Gemcitabine derivative (which may be referred to as analogues) described above were evaluated with two assays: • 1. Cell growth assay using the SRB assay in cell lines A549/WT, SW1573/WT, PANC-01 and BXPC-3. • 2. MTT assay in human bladder cancer cell line T-24
(§2) The following cell lines were tested: • A549/WT —wild type human lung adenocarcinoma cell line (1) • SW1573/WT —wild type non-small lung human cell line (2), • PANC-01—human pancreatic cancer cell line (3) • BXPC-3 -epithelial human pancreatic adenocarcinoma cells (4).
(§3) Dipyridamole inhibits adenosine uptake by erythrocytes platelets and endothelial cells in vitro and in vivo. Thus, the present inventors recruited dipyridamole as an inhibitor of the nucleoside transporters of the tumour cells to observe the behaviour of the presently described Gemcitabine derivatives.
(§4) From the IC50 of each compound in the presence of dipyridamole, by dividing it with the IC50 of each compound in the absence of dipyridamole, the present inventors calculated a ratio that compared the efficacy of the analogous presence of dipyridamole.
(§5) Ratio=IC50 in the presence of dipyridamole/IC50 in the absence of dipyridamole • FIG. 10. Ratio of IC50 of 4-N-acyl and 4-N-phosphoryl derivatives in the presence of, compared to in the absence of, dipyridamole, in four cell lines

For series [2], the system named is human bladder cancer cell line T-24. The series is described as follows: MTT assay, cell viability of T-24 cells. Particulars: 100 μM; for inhibition of cell growth (cell viability, MTT), order of potency: 5000 cells/well; for cell viability (MTT), most potent derivatives: 10000 cells/well. The series is classed as cell-based. The procedure: as §1
The cell viability of T-24 bladder cancer cells upon treatment with the Gemcitabine derivatives was evaluated using the MTT assay. T24 cancer cells were cultured in DMEM (Gibco) high glucose supplemented with 10% FBS and 1% Penicillin/Streptomycin (100 U/mL Penicillin and 100 μg/mL Streptomycin), at 37 ° C. in humidified atmosphere of 5% CO2.
For the MTT assay 5000 or 10000 cells were seeded in triplicates in 96-well plates. Stock solutions of each derivative were prepared in DMSO/EtOH (1:1 v/v). Then, the cells were treated and incubated with 100 μM of each compound for 24 or 48 hours. After the completion of the incubation time, 10 μL of MTT solution (5 mg/ml in PBS buffer) were added in each well and incubated for 4 hrs. Finally, to stop the reaction, the supernatant from each well was removed and 100 μL of stop mix solution (20% SDS in 50% dimethyl formamide in water) were added. The plate remained in darkness for 2 h and the absorbance was measured at 540 nm via a microplate ELISA reader (Awareness Technology Inc.) with a reference at 630 nm. The % cell viability for each compound was calculated relatively to the absorbance of the untreated cells (control).
Two sets of experiments were performed at concentrations of 100 μM, and the absorption of formazan was measured after 24 and 48 hours.
Another experiment was conducted with the MTT assay where the compounds were incubated for 48 hours at […] derivative concentration where the number of cells seeded per well was 10000.

In series [3] the test system is PANC-01 human pancreatic cancer cell line. The experiment in a line: Cell growth assay (SRB) in PANC-01. Type of series: cell-based. Particulars: for Ratio of IC50 in the presence of dipyridamole / IC50 in the absence of dipyridamole: 4-N-acyl and 4-N-phosphoryl derivatives (Table 5); for IC50: Homo sapiens, Pancreatic cancer cell; for Ratio of IC50 in the presence of, compared to in the absence of, dipyridamole: acetylated 4-N-acyl derivatives (Table 7). As to the method: as §1, §2, §3, §4, §5

Series [4] relates to BXPC-3 epithelial human pancreatic adenocarcinoma cells. The experiment in a line: Cell growth assay (SRB) in BXPC-3. The series is classed as cell-based. Particulars: for Ratio of IC50 in the presence of dipyridamole / IC50 in the absence of dipyridamole / Ratio of IC50 in the presence of, compared to in the absence of, dipyridamole: BXPC-3; for Ratio of IC50 in the presence of dipyridamole / IC50 in the absence of dipyridamole: 4-N-acyl and 4-N-phosphoryl derivatives (Table 5); for IC50: Homo sapiens, BXPC-3, BXPC-3; for Ratio of IC50 in the presence of, compared to in the absence of, dipyridamole: acetylated 4-N-acyl derivatives (Table 7). As to the method: as §1, §2, §3, §4, §5

For series [5], the system named is SW1573/WT wild type non-small lung human cell line. The experiment in a line: Cell growth assay (SRB) in SW1573/WT. The series is classed as cell-based. The note with it: for IC50: Homo sapiens, SW1573, SW 1573/WT; for Ratio of IC50 in the presence of dipyridamole / IC50 in the absence of dipyridamole / Ratio of IC50 in the presence of, compared to in the absence of, dipyridamole: SW 1573/WT; for Ratio of IC50 in the presence of dipyridamole / IC50 in the absence of dipyridamole: 4-N-acyl and 4-N-phosphoryl derivatives (Table 5); for Ratio of IC50 in the presence of, compared to in the absence of, dipyridamole: acetylated 4-N-acyl derivatives (Table 7). As to the method:
as §1, §2, §3, §4, §5

Series [6] can be described thus: Photolysis under UV irradiation (absorption spectrum). The series is classed as physicochemical. The note with it: 10 μM in MeOH, UV lamp at 366 nm for 240 minutes, room temperature. From the text:
After ultraviolet irradiation at a specific photo-digested group wavelength in the range from 350 to 500 nm (or greater than 700 nm when utilising two photon excitation), the active form of the encapsulated molecule is released irreversibly. Photo-inclusion has often been performed in vitro for the spatio-temporal control of biological processes and the release of light-induced payload. […] The present inventors believe that this dual strategy is of great value for therapeutic applications while it requires non-invasive and space-time drug activation. In order to show this dual drug release mechanism, the present inventors performed photolysis experiments (FIG. 2).
The spectra of derivative 7 (10 μM) and Gemcitabine (5 μM) were recorded on a Perkin Elmer Lambda 25 spectrometer at room temperature. The samples were solubilized in MeOH grade HPLC grade and irradiated with UV lamp at 366 nm for 240 minutes. The present inventors noticed that in the range of 280-290 nm and 320-330 nm there is a decrease in the absorption intensity and at the same time there is an increase in intensity to 250-270 nm. […] This theory is supported by the increase in the band corresponding to Gemcitabine.

The mark [7] stands for this setting: 4-N-acyl and 4-N-phosphoryl derivatives (Table 4).
Setting [8] is: acetylated 4-N-acyl derivatives (Table 6).

With `O=C(Nc1ccn(C2OC(CO)C(O)C2(F)F)c(=O)n1)OCCl` (centres unmarked) [Derivative 4], the “Ratio of IC50 in the presence of dipyridamole / IC50 in the absence of dipyridamole” value was determined as 6.3 in series [1], 22 in series [3], 4.5 in series [4] and 10 in series [5]. For the same compound, the IC50 in series [1] (setting [7]) came out at 0.1 µM; in series [3] (setting [7]), 0.045 µM; in series [4] (setting [7]), 0.1 µM; in series [5] (setting [7]) it was 0.1 µM. For the same compound, the “inhibition of cell growth (cell viability, MTT), order of potency” value (shortened to “inhibition of cell growth”) in series [2] (24 hours) is “greater potency than the parent drug Gemcitabine”; in series [2] (48 hours), 17>4>11 and then Gemcitabine. Besides, the “cell viability (MTT), most potent derivatives” value (from here on “cell viability (MTT)”) in series [2] (48 hours) is “most potent”.

On to `COc1cc(COC(=O)Nc2ccn(C3OC(CO)C(O)C3(F)F)c(=O)n2)c([N+](=O)[O-])cc1OC` (centres unmarked) [Derivative 7, (4,5-dimethoxy)-2-nitrobenzyl-(4-N-Gemcitabine) carbamate], for which the “Ratio of IC50 in the presence of dipyridamole / IC50 in the absence of dipyridamole” value in series [1] is recorded as 14.2; in series [3], 3.3; in series [4] it was 13.9; in series [5], 11. Moreover, the IC50 was 0.46 µM in series [1] (setting [7]), 1.5 µM in series [3] (setting [7]), 0.23 µM in series [4] (setting [7]) and 0.44 µM in series [5] (setting [7]). In addition, in series [6], the “photolysis on irradiation (absorption spectrum over time)” value is “release of Gemcitabine”.

Turning to `O=C(Nc1ccn(C2OC(CO)C(O)C2(F)F)c(=O)n1)OCc1cn(C2=CC3C=CC(O)=CC3OC2=O)nn1` (centres unmarked) [Derivative 11, (1-(7-hydroxy-2-oxo-4a,8a-dihydro-2H-chromen-3-yl)-1H-1,2,3-triazol-4-yl) methyl-4-N-Gemcitabine carbamate], the “Ratio of IC50 in the presence of dipyridamole / IC50 in the absence of dipyridamole” value in series [1] was 11; in series [3], 4.6; in series [4], 25; in series [5], 11.9. Also, the IC50 in series [1] (setting [7]) was 0.43 µM; in series [3] (setting [7]) it was 1.6 µM; in series [4] (setting [7]), 0.2 µM; in series [5] (setting [7]), 0.42 µM. Besides, the “inhibition of cell growth” value was “greater potency than the parent drug Gemcitabine” in series [2] (24 hours); 17>4>11 and then Gemcitabine in series [2] (48 hours). Also, in series [2] (48 hours), the “cell viability (MTT)” value is reported as “most potent”.

Regarding `CCCCOC(=O)Nc1ccn(C2OC(COC(C)=O)C(OC(C)=O)C2(F)F)c(=O)n1` (centres unmarked) [Derivative 14], the “Ratio of IC50 in the presence of, compared to in the absence of, dipyridamole” value (shortened to “Ratio of IC50 … in the absence of, dipyridamole”) in series [1] is on record as 0.83; in series [3], 0.9; in series [4], 1.77; in series [5], 1.4. Further, the IC50 amounted to 3.1 µM in series [1] (setting [8]), 6.5 µM in series [3] (setting [8]), 1.35 µM in series [4] (setting [8]) and 2.8 µM in series [5] (setting [8]). In addition, the “cell viability (MTT)” value in series [2] (48 hours) is listed as “most potent”.

As to `CC(=O)OCC1OC(n2ccc(NC(=O)OCCl)nc2=O)C(F)(F)C1OC(C)=O` (centres unmarked) [Derivative 17], the “Ratio of IC50 … in the absence of, dipyridamole” value is on record as 2.4 in series [1], 1.8 in series [3] and 3.5 in series [4]. Further, the IC50 in series [1] (setting [8]) was 2 µM; in series [3] (setting [8]) it was 0.7 µM; in series [4] (setting [8]), 0.095 µM; in series [5] (setting [8]) it was 0.14 µM. The “inhibition of cell growth” value in series [2] (24 hours) was “greater potency than the parent drug Gemcitabine”; in series [2] (48 hours) it was 17>4>11 and then Gemcitabine.

Consider `CC(=O)Nc1ccn(C2OC(COC(C)=O)C(OC(C)=O)C2(F)F)c(=O)n1` (centres unmarked) [Derivative 22], for which the “Ratio of IC50 … in the absence of, dipyridamole” value in series [1] is recorded as 4; in series [3], 1.6; in series [4], 4.1; in series [5], 13.4. For the same compound, the IC50 in series [1] (setting [8]) was determined as 0.4 µM; in series [3] (setting [8]) it was 3.7 µM; in series [4] (setting [8]) it was 0.45 µM; in series [5] (setting [8]) it was 0.26 µM.

For the compound `Nc1ccn([C@@H]2O[C@H](CO)[C@@H](O)C2(F)F)c(=O)n1` [Gemcitabine, 2′,2′-difluoro-2′-deoxycytidine, reference compound], the “Ratio of IC50 in the presence of dipyridamole / IC50 in the absence of dipyridamole” value in series [1] was determined as 15; in series [3] it was 3.4; in series [4] it was 26.6; in series [5], 22.7. In addition, the “Ratio of IC50 … in the absence of, dipyridamole” value in series [1] is listed as 18; in series [3], 7.4; in series [4] it was 24.3; in series [5], 1. The IC50 is 0.018 µM in series [1] (setting [7]); 0.015 µM in series [1] (setting [8]); 0.052 µM in series [3] (setting [7]); 0.031 µM in series [3] (setting [8]); 0.009 µM in series [4] (setting [7]); 0.013 µM in series [4] (setting [8]). Besides, the results for the IC50 in series [5] (setting [7]) and in series [5] (setting [8]) were 0.011 µM and 0.0096 µM, respectively. The “inhibition of cell growth” value in series [2] (48 hours) is 17>4>11 and then Gemcitabine.

A word on the IC50: it is the midpoint of a concentration-inhibition curve.
